In US5270302A, “Derivatives of tetrapeptides as CCK agonists” (priority 1991, dated 1993):
Like-named read-outs stand apart in the source and are kept apart here. *1 amine or outer side, *2 acyl side, *3 side chain or, on linkers, in order; H or OH if unused. Where a SMILES comes first, the peptide text is derived from it. Side-chain parts run from the residue outwards. [ ]: non-standard residue; d: D form. The star is where a group is joined. ξ: configuration not given here. ξαMeW = CC(N)(Cc1c[nH]c2ccccc12)C(=O)O; Isobutyloxycarbonyl = CC(C)COC(=O)*; Isopropoxycarbonyl = CC(C)OC(=O)*; NMeF = CN[C@@H](Cc1ccccc1)C(=O)O; NMeD = CN[C@@H](CC(=O)O)C(=O)O; NH(2-Me-phenyl) = Cc1ccccc1N*; X9 = CN(C)c1ccc(C=CC(=O)*)cc1; Suc = O=C(CCC(=O)[*:2])[*:1]; X1 = O=C(C=Cc1ccc(O)cc1)*; Boc = CC(C)(C)OC(=O)*; CO = O=C([*:1])[*:2]

Key:
Type-A CCK receptor = target: T1, Type-A CCK receptor (Cavia porcellus, UniProt Q63931); assay: Radioligand binding of [125I]BH-CCK-8 in guinea pig pancreatic membrane preparations
T1 construct: Cortical and pancreatic membranes were prepared as described; from tissue; host or cells: guinea pig pancreas membranes
T1 sequence (Q63931 1-430): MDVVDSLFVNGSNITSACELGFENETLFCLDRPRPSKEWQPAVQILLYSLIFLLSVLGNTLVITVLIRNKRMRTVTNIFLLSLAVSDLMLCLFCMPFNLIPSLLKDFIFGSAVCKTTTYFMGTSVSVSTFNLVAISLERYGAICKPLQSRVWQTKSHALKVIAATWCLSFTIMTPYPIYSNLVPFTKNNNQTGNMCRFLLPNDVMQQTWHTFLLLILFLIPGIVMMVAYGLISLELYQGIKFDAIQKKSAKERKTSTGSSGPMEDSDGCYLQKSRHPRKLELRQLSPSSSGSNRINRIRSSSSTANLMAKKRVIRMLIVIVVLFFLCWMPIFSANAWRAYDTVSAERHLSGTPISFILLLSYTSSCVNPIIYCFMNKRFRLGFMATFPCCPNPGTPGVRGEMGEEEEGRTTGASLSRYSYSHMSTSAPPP
In short: (§1)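 Membranes came from male guinea pig pancreas (type A) or cerebral cortex (type B) and were resuspended in pH 7.4 HEPES-EGTA-salt buffer containing bestatin and phosphoramidon. Test compounds competed with [125I]BH-CCK-8 in 0.1% BSA: cortex 150 min at 30 °C, pancreas 150 min at 37 °C. Reactions ended by filtration; IC50 from Hill analysis.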

Type-B CCK receptor = target: T2, Type-B CCK receptor (Cavia porcellus, UniProt H0VZC5); assay: Radioligand binding of [125I]BH-CCK-8 in guinea pig cerebral cortical membrane preparations
T2 construct: Cortical and pancreatic membranes were prepared as described; from tissue; host or cells: guinea pig cerebral cortex membranes
T2 sequence (H0VZC5 1-426): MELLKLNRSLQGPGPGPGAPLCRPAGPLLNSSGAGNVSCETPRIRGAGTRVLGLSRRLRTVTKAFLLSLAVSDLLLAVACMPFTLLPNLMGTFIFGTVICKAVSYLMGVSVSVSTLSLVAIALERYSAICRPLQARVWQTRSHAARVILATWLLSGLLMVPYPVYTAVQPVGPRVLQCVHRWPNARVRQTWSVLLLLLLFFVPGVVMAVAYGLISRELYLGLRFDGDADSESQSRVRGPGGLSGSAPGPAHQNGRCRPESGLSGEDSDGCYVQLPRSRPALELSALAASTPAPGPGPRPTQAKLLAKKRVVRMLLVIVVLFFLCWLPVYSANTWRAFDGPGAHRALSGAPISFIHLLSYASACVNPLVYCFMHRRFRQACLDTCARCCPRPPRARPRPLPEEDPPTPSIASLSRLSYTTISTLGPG
In short: as §1

[1] = guinea pig pancreatic membranes, 37° C., 150 min, read-out: IC50 (nM) 125I-BH-CCK-8 Type-A receptor
[2] = guinea pig cortical membranes, 30° C., 150 minutes, read-out: IC50 (nM) 125I-BH-CCK-8 Type-B receptor
[3] = IC50 (nM) 125I-BH-CCK-8 Type-A receptor, guinea pig pancreatic membranes, 37° C., 150 min
[4] = IC50 (nM) 125I-BH-CCK-8 Type-B receptor, guinea pig cortical membranes, 30° C., 150 minutes

IC50 (Type-A CCK receptor; [1]) [nM] | IC50 (Type-B CCK receptor; [2]) [nM] | Structure (SMILES) | IC50 (Type-A CCK receptor; [3]) [nM] | other results
 |  | Cc1ccccc1NC(=O)NCCCC[C@H](NC(=O)[C@H](Cc1c[nH]c2ccccc12)NC(=O)CCC(=O)O)C(=O)N[C@@H](CC(=O)O)C(=O)N(C)[C@@H](Cc1ccccc1)C(N)=O [Example 94, (3-Carboxylpropionyl)-Trp-Lys(ε-N-(2-methylphenyl)aminocarbonyl)-Asp-(NMe)PheNH2] (Suc-WK([CO-NH(2-Me-phenyl)])D[NMeF]-NH2) |  | IC50 (Type-A CCK receptor): 16 nM; IC50 (Type-B CCK receptor): 5600 nM
20 | 1300 | Cc1ccccc1NC(=O)NCCCC[C@H](NC(=O)C(C#N)Cc1c[nH]c2ccccc12)C(=O)N[C@@H](CC(=O)O)C(=O)N(C)[C@@H](Cc1ccccc1)C(N)=O (stereo partly shown) [Example 105, (2-Cyano-3-(3-indolyl)propionyl)-Lys(ε-N-(2-methylphenyl)aminocarbonyl)-Asp-(NMe)PheNH2] |  | 
120 | 2100 | CN(C)c1ccc(C=CC(=O)NCCCC[C@H](NC(=O)[C@H](Cc2c[nH]c3ccccc23)NC(=O)OC(C)(C)C)C(=O)N[C@@H](CC(=O)O)C(=O)N[C@@H](Cc2ccccc2)C(N)=O)cc1 [Example 13, t-BOC-Trp-Lys(ε-N-(4-(dimethylamino)cinnamoyl))-Asp-PheNH2] (Boc-WK(X9)DF-NH2) |  | 
6.1 | 6600 | Cc1ccccc1NC(=O)NCCCC[C@H](NC(=O)CCc1c[nH]c2ccccc12)C(=O)N(C)[C@@H](CC(=O)O)C(=O)N[C@@H](Cc1cccc2ccccc12)C(N)=O [Example 103, (3-(3-Indolyl)propionyl)-Lys(ε-N-(2-methylphenyl)aminocarbonyl)-(NMe)Asp-α-NalNH2] |  | 
 |  | Cc1ccccc1NC(=O)NCCCC[C@H](NC(=O)[C@H](Cc1c[nH]c2ccccc12)NC(=O)OCC(C)C)C(=O)N[C@@H](CC(=O)O)C(=O)N(C)[C@@H](Cc1ccccc1)C(N)=O [Example 77, Isobutyloxycarbonyl-Trp-Lys(ε-N-(2-methylphenyl)aminocarbonyl)-Asp-(NMe)PheNH2] (Isobutyloxycarbonyl-WK([CO-NH(2-Me-phenyl)])D[NMeF]-NH2) | 2.3 | IC50 (Type-B CCK receptor; [4]): 6500 nM
 |  | Cc1ccccc1NC(=O)NCCCC[C@H](NC(=O)[C@H](Cc1c[nH]c2ccccc12)NC(=O)OC(C)C)C(=O)N[C@@H](CC(=O)O)C(=O)N(C)[C@@H](Cc1ccccc1)C(N)=O [Example 78, Isopropyloxycarbonyl-Trp-Lys(ε-N-(2-methylphenyl)aminocarbonyl)-Asp-(NMe)PheNH2] (Isopropoxycarbonyl-WK([CO-NH(2-Me-phenyl)])D[NMeF]-NH2) | 1.6 | IC50 (Type-B CCK receptor): 5000 nM
 |  | Cc1ccccc1NC(=O)NCCCC[C@H](NC(=O)C(C)(N)Cc1c[nH]c2ccccc12)C(=O)N(C)[C@@H](CC(=O)O)C(=O)N[C@@H](Cc1ccccc1)C(N)=O (stereo partly shown) [Example 123] (H-[ξαMeW]K([CO-NH(2-Me-phenyl)])[NMeD]F-NH2) | 5.9 | IC50 (Type-B CCK receptor; [4]): > 10000 nM

Structure (SMILES) | IC50 (Type-A CCK receptor; [1]) [nM] | IC50 (Type-B CCK receptor; [2]) [nM] | IC50 (Type-A CCK receptor; [3]) [nM] | other results
CN(C(=O)[C@H](CCCCNC(=O)C=Cc1ccc(O)cc1)NC(=O)[C@H](Cc1c[nH]c2ccccc12)NC(=O)OC(C)(C)C)[C@@H](CC(=O)O)C(=O)N(C)[C@@H](Cc1ccccc1)C(N)=O [Example 72, t-BOC-Trp-Lys(ε-N-(4-hydroxycinnamoyl))-(NMe)Asp-(NMe)PheNH2] (Boc-WK(X1)[NMeD][NMeF]-NH2) | 12 | > 9000 |  | 
